row,SMILES,melting point
1,O=C(O)CN(CC(=O)O)CC(=O)Nc1c(F)c(F)c(F)c(F)c1F,182 to 183 °C
2,CCCCCCCCCCCCCCCCCC(=O)c1cc(C(=O)OCC)ccc1O,74 °C
3,COc1cccc([C@@]23CCC[C@@H]2CN(C)CC3)c1 (relative stereo),40 to 43 °C
4,Cc1c(C)c(Br)c2ncccc2c1C,180 °C
5,Cc1nn(-c2cc(Oc3ccc(N)cc3Cl)c(Cl)cc2Cl)c(=O)n1C(F)F,161 to 162 °C
6,OCC=Cc1ccc(Br)cc1F,38 to 40 °C
7,CCOC(=O)C1=C(N)OC(C)=C(C(=O)OC(C)C)C1c1cccc([N+](=O)[O-])c1 (stereo not given),135 °C
8,Nc1ccc(OCC(=O)OCCO)cc1,104 to 106 °C
9,CC(=O)SCc1ccc([N+](=O)[O-])cc1[N+](=O)[O-],78 to 79 °C
10,CCOc1cc(N)c(Cl)cc1C(=O)NC1CCN(CC2CCN(C(=O)CCOC)CC2)CC1,175 to 177 °C
11,CCN1CCC(c2c[nH]c3ccc(NS(C)(=O)=O)cc23)CC1,179 to 181 °C
12,CCCc1c2c(cc3c1OC(O)(C(=O)OCC)CC3=O)CCCC2 (stereo not given),126 to 128 °C
13,Cc1cn(C2CCN(c3c(F)cc4c(=O)c(C(=O)O)cn(C5CC5)c4c3F)C2)nn1 (stereo not given),219 to 220 °C
14,NC(c1ccncc1)C1CCN(C2CCC(O)(CC(=O)O)CC2)CC1 (stereo not given),266 °C
15,Nc1nc2c(ncn2C2CC(CO)C(O)C2F)c(=O)[nH]1 (stereo not given),266 to 269 °C
16,O=C(O)C12CC=CCC1CSc1ccccc12 (stereo not given),152 to 155 °C
17,COC(=O)C1Cc2cncn2C(=O)N1 (stereo not given),159 to 164 °C
18,Cn1nc(C#N)c2ccccc21,73 °C
19,O=C1CN=C(c2ccccc2)O1,83 to 86 °C
20,O=C(O)c1ccc(F)nc1F,170 to 171 °C

row,SMILES,melting point
1,CC(C)N(O)C(=O)Nc1cccc(S(C)=O)c1 (stereo not given),135 to 136 °C
2,O=C1CCCC(=O)C1Br,153 to 154 °C
3,CC(C)(C)c1nc(CO)c[nH]1,212 to 221 °C
4,CN1C(C)(C)CC(OC(=O)N=NC(=O)OC2CC(C)(C)N(C)C(C)(C)C2)CC1(C)C,135 to 137 °C
5,CC(C)(C)OC(=O)NCc1cccc(C2CCNCC2)c1,79 to 84 °C
6,CCCN1CCCN(c2c(N3CCCN(CCC)CC3)c(=O)c2=O)CC1,90 to 92 °C
7,O=C(c1ccccc1)N1CCC(O)CC1,91.5 to 92 °C
8,O=C(O)CCCCCCCCCCCCCCCCCCC(=O)ON1C(=O)CCC1=O,122 to 124 °C
9,COc1cc(OCc2ccccc2)cc(Cl)c1Cl,79 to 81 °C
10,CNC(=O)CN1CCc2cc(Nc3ncc(Cl)c(N[C@H]4[C@@H](C(N)=O)[C@@H]5C=C[C@H]4C5)n3)c(OC)cc2CC1,135 to 145 °C
11,COc1nn(-c2ccc(C)c3c2OC(C)(C)C3)c(=O)o1,60 to 62 °C
12,Cc1nc(N2CCc3nc(C)sc3CC2)c([N+](=O)[O-])c(=O)[nH]1,> 200 °C
13,CC(C)C(=O)Oc1ccc2c(c1)CCC1C2CCC2(C)C1CC(O[Si](C)(C)C(C)(C)C)C2OC(=O)C(C)C (stereo not given),114 °C
14,O=C(Cc1ccccc1)c1cc2c(c(Cl)c1Cl)OC(C(=O)O)C2 (stereo not given),146 °C
15,Cc1c(OCC(F)(F)C(F)F)ccnc1CO,67 to 68 °C
16,CC(C)(CO)c1ccc(C#N)cc1,70 to 82 °C
17,O=c1[nH]c2cccc(F)c2c(=O)n1CCCN1CC=C(c2ccc(Cl)cc2)CC1,201 to 202 °C
18,Fc1cccc2sc(C3=CCNCC3)cc12,83 to 86 °C
19,CCCCCCCCCCCCCCCCNc1ccc(C(=O)NCCS(=O)(=O)O)cc1,190 to 220 °C
20,CCOC(=O)Nc1c(C#N)c(C(F)(F)F)nn1-c1c(Cl)cc(C(F)(F)F)cc1Cl,177 to 179 °C

# The next lines start with the values.
row,melting point,SMILES
1,265 to 267 °C,Oc1cc(Br)c2oc(-c3ccc(O)c(F)c3)nc2c1
2,102 to 103 °C,O=C(CCNC1CC1)Nc1cc(-c2nnc(SCc3cccc(F)c3)o2)ccn1
3,195 °C,CCCCc1nc(S(=O)c2ccccc2)c(C(=O)O)n1Cc1ccc(-c2ccccc2C(=O)O)cc1 (stereo not given)
4,155 to 157 °C,Cc1c(-c2ccncc2)sc(-c2ccncc2)c1C(C)O (stereo not given)
5,221 °C,CC(C)(C)OC(=O)N1CCC(OCc2ccccc2)C1CC(=O)Cn1cnc2ccncc2c1=O (stereo not given)
6,218 to 220 °C,O=C(O)CCN1CCN2c3ccccc3Sc3ccccc3C2C1 (stereo not given)
7,187 °C,CC(=NNC(=O)c1ccccc1C)c1ccncc1
8,81 °C,CC(=O)NCCCNC(=O)c1cc2c(ccc3cnn(C[C@H](C)N)c32)o1
9,144 °C,Cc1cc(-n2nc(C#N)cc2-c2ccc(S(C)(=O)=O)cc2)ccc1F
10,148 to 150 °C,CC(c1ccc2ccccc2c1)N(O)C(=O)NO (stereo not given)
11,143 to 145 °C,CCc1ccc(-c2cn(C)cc(-c3ccccc3)c2=O)cc1
12,104 to 105 °C,COc1nc2cc(Cl)cc(CCCO)c2nc1OC
13,210 to 211 °C,CCCC1NC(C(=O)O)Cc2c1[nH]c1ccccc21 (stereo not given)
14,262 to 264 °C,CC1C(C/C=C/c2ccccc2)C(=O)N(Cc2ccccc2)c2ccccc2N1C(=O)CN1C(=O)c2ccccc2C1=O (stereo not given)
15,84 to 85 °C,COC(=O)C(C)(C)C(=O)c1ccc(-n2cncn2)cc1
16,124 to 127 °C,C=CCNCC(O)COc1cccc2c1CC(=O)N2 (stereo not given)
17,67 to 70 °C,CSc1ccc(C=C2c3ccc(F)cc3CC2C)cc1 (stereo not given)
18,111 to 113 °C,CCCCC(C)OC(=O)Nc1ccc(-c2ncn(-c3ccc(OC(F)(F)F)cc3)n2)cc1 (stereo not given)
19,167 to 169 °C,Cc1ccccc1CNc1c2c(nc3ccccc13)CCCC2O (stereo not given)
20,196 to 198 °C,N#CC(c1ccnc(OCc2ccccc2)n1)c1nc2ccccc2s1 (stereo not given)

row,melting point,SMILES
1,138 to 140 °C,N#Cc1cnc2c(oc3ccccc32)c1Oc1ccc(Cl)cc1F
2,188 to 191 °C,Cc1cc(C2=NN=C(C=O)Cc3cc4c(cc32)OCO4)ccc1[N+](=O)[O-]
3,183 to 184 °C,N#Cc1cccc(CC(NC(=O)c2cc3cc(Cl)ccc3[nH]2)C(=O)N2CCSC2)c1 (stereo not given)
4,158 to 160 °C,O=C(O)CCc1cc2cc(Cl)ccc2n1S(=O)(=O)c1ccc(Cl)cc1
5,94 to 97 °C,CCOC(=O)CNC(=O)N1CCn2c(c(C(N)=O)c(Cl)c2-c2ccccc2)C1
6,136 to 139 °C,CCCc1nc2c(N)nc3cc(OCCCCCCNC(=O)OC(C)(C)C)ccc3c2s1
7,93 to 95 °C,CCC(OC)(c1cncc(OCc2ccc3ccccc3c2)c1)c1nccs1 (stereo not given)
8,260 to 262 °C,CCc1cc2c(c(Sc3ccccc3)cc(=O)n2Cc2ccc(C(=O)O)cc2)c(CC)n1
9,155 to 156 °C,"CCN1CC=C(CC(=O)NC2(c3ccc(C(F)(F)F)cc3)C(=O)Nc3cc(Cl)cc(Cl)c32)CC1 (single isomer, unassigned; (+))"
10,214 to 216 °C,O=C(CCl)Nc1cc(C(=O)O)cc(OCc2ccccc2)c1C(=O)c1ccccc1
11,75.5 to 77.5 °C,COC(=O)CCC(=O)c1ccc(-c2ccccc2F)cc1
12,88 °C,CCOC(=O)c1c(-c2ccc(C)cc2)nc2ccccn12
13,133 to 136 °C,Fc1ccc2[nH]cc(CC3C=CCN(Cc4ccccc4)C3)c2c1 (stereo not given)
14,219 to 221 °C,O=C(O)[C@@H]1Cc2ccccc2N1C(=O)CN1CCN(Cc2ccc(Cl)cc2)CC1
15,82 to 83 °C,COc1ccc(C2CCc3ccccc3O2)cc1 (stereo not given)
16,79 to 80 °C,CCCCCCCCOc1cc2c(cc1/C(C)=C/c1ccc(C(=O)OC)cc1)C(C)(C)CCCS2(=O)=O
17,184 to 186 °C,CCOC(=O)N1CCN(C(=O)Cn2c(-c3ccc(Cl)cc3)nc3cccnc32)CC1
18,96 to 98 °C,CO/C=C(/C(=O)OC)c1ccccc1Oc1cc(OCc2ccc([N+](=O)[O-])cc2)ncn1
19,80 to 82 °C,OC1(Cc2ccccc2)CCN(CCC#Cc2ccccc2)CC1
20,173 to 174 °C,O=C(CCC(=O)N1CCN(c2ccc(N3C[C@H](CNC(=S)C4CC4)OC3=O)cc2F)CC1)c1ccc(CN2CCOCC2)cc1

row,melting point,SMILES
1,60 °C,CCOC(=O)c1n[nH]c(C(=O)OCC)c1C(O)c1ccc(Cl)cc1[N+](=O)[O-] (stereo not given)
2,125 °C,CCOC(=O)N(C)C1CCN(c2nc3ccccc3n2Cc2ccc(F)cc2)CC1
3,109 to 110 °C,COc1cc(C(C)C)c2c(c1)S(=O)(=O)N(COc1cc(Cl)nn1-c1ccccc1)C2=O
4,168 to 171 °C,Cn1c(-c2ccc(OC3CCN(C4CCC4)CC3)cc2)nc2ccccc2c1=O
5,199 to 200 °C,O=C(N[C@H](Cc1ccc(F)cc1)[C@@H](O)c1ccc(F)cc1)c1cccc2ccccc12 (racemic)
6,190 to 191 °C,CCc1nc(CCc2ccc(NC(=O)/C=C/c3cnn(C)c3-c3ccc(F)cc3)cc2)cs1
7,299 to 303 °C,CCCn1cc2c(C3C(=O)Nc4ccc(Br)cc43)nc(NCCN3CCOCC3)nc2n1 (stereo not given)
8,178 to 179 °C,O=C(O)C1CC=C(c2c(-c3ccccc3)[nH]c3ccccc23)CC1 (stereo not given)
9,110 to 112 °C,ClCCCCCOc1ccc(C2=C(c3ccc(OC4CCCCO4)cc3)CCCc3cc(OC4CCCCO4)ccc32)cc1 (stereo not given)
10,88 to 89 °C,Cc1csc(C)c1N(Cn1cccn1)C(=O)CCl
11,205 °C,Cc1ccc(F)c(C(C)Oc2ccc3nc(-c4ccccc4OC(N)=O)sc3c2)c1Cl (stereo not given)
12,200 to 203 °C,O=C(O)Cn1c(=O)oc2cc(-c3ccccc3)c(Cl)cc21
13,206 to 208 °C,CC(C(=O)O)c1ccc2sc3ncccc3c(=O)c2c1 (stereo not given)
14,172 °C,CC(OS(C)(=O)=O)C(C)n1ncn(-c2ccc(N3CCN(c4ccc(OCC5COC(Cn6cncn6)(c6ccc(F)cc6F)O5)cc4)CC3)cc2)c1=O (stereo not given)
15,148 to 150 °C,CCC(=O)N(CCCc1ccccc1)C1CCc2c(cccc2NC(C)=O)C1 (stereo not given)
16,92 to 93 °C,COc1ccc(SCc2c(C(C)C)nc(C(C)C)c(CO)c2-c2ccc(F)cc2)cc1
17,210 to 212 °C,Nc1nc2ccccc2c2c1ncn2CCCCNC(=O)c1ccccc1
18,96 to 98 °C,CCCCc1nc(O)cc(COC)n1
19,140 °C,CC(C)(C)OC(=O)CN(C(=O)CN1C(=O)c2ccccc2C1=O)c1ccccc1F
20,89 to 90 °C,CCOC(=O)Cc1ccc(-c2nc(COc3ccc(COc4nn(-c5ccccc5)cc4/C=C\c4csc(C(C)C)n4)cc3OC)c(C)o2)cc1

# — a melting point compilation (Tetko et al.; mined from patent text by program, amines drawn as free bases though some values may be those of a salt)
